Measurements taken from patent US9957278B2, “Furopyridine compounds for the treatment of hepatitis C” (BRISTOL-MYERS SQUIBB COMPANY, priority 2014, dated 2018).
Where two headings read alike, the source gives them in different places.

Assays:
[1] = system: HCV; conditions: cited from earlier work
[2] = system: genotype 1b (Con-1) HCV replicon; assay: HCV Replicon Luciferase Assay (genotype 1b); format: cell-based; conditions: Hepatitis C virus, 72 h, genotype 1b replicon in Huh-7 cells, Renilla luciferase, 3 days incubation
Experimental: The cell lines used to evaluate compounds consist of a human hepatocyte derived cell line (Huh-7) that constitutively expresses a genotype 1b (Con-1) HCV replicon or a genotype 1b (Con-1) HCV replicon with an asparagine replacing the cysteine at amino acid 316, or a genotype 2a (JFH-1) replicon, containing a Renilla luciferase reporter gene. These cells were maintained in Dulbecco's modified Eagle medium (DMEM) containing 10% FBS, 100 U/mL penicillin/streptomycin and 1.0 mg/mL G418.
To evaluate compound efficacy, titrated compounds were transferred to sterile 384-well tissue culture treated plates, and the plates were seeded with HCV replicon cells (50 μL at a density of 2.4×10^3 cells/well) in DMEM containing 4% FBS (final DMSO concentration at 0.5%). After 3 days incubation at 37° C., cells were analyzed for Renilla Luciferase activity using the EnduRen substrate (Promega cat #E6485) according to the manufacturer's directions. Briefly, the EnduRen substrate was diluted in DMEM and then added to the plates to a final concentration of 7.5 μM. The plates were incubated for at least 1 h at 37° C. then read on a Viewlux Imager (PerkinElmer) using a luminescence program. The 50% effective concentration (EC50) was calculated using the four-parameter logistic formula noted above.
Compound EC50 data is expressed as A: <100 nM; B=100-1000 nM; C>1000 nM).

| SMILES | EC50 ([2]; read-out: EC50 1b (class)) [µM] | further results |
| --- | --- | --- |
| CNC(=O)c1c(-c2ccc(F)cc2)oc2cc(N(CCO)S(C)(=O)=O)c(C3CC3)cc12 [HCV-796] | – | hepatic toxicity ([1]; extended dosing of the combination regimens): hepatic toxicity observed; HCV RNA levels in patients ([1]; patients, single agent transient, more robust with interferon and ribavirin): reduce HCV RNA levels |
| CNC(=O)c1c(-c2ccc(F)cc2)oc2nc(CCC(F)(F)F)c(-c3cccc(C(=O)NC(CF)(CF)CF)c3)cc12 [Compound 20002] | < 0.1 | – |
| CNC(=O)c1c(-c2ccc(F)cc2)oc2nc(CCC(F)(F)F)c(-c3cccc(C(=O)NC(C)(CO)CO)c3)cc12 [Compound 20027] | < 0.1 | – |
| CNC(=O)c1c(-c2ccc(F)cc2)oc2nc(NCC(F)(F)F)c(-c3cccc(C(=O)NC(CF)(CF)CF)c3)cc12 [Compound 30001] | < 0.1 | – |
| CNC(=O)c1c(-c2ccc(F)cc2)oc2nc(CCC(F)(F)F)c(-c3cccc(C(=O)NC4CCNC4=O)c3)cc12 (stereo not drawn) [Compound 20020] | < 0.1 | EC50 ([2]; read-out: EC50 (uM) 1b): 0.0519 µM |
| CNC(=O)c1c(-c2ccc(F)cc2)oc2nc(CCC(F)(F)F)c(-c3cccc(C(=O)NC(c4ccccc4)C4CC4)c3)cc12 (stereo not drawn) [Compound 20017] | < 0.1 | – |
| CNC(=O)c1c(-c2ccc(F)cc2)oc2nc(CCC(F)(F)F)c(-c3cccc(C(=O)NCC(F)(F)C(F)(F)C(F)(F)F)c3)cc12 [Compound 20037] | < 0.1 | EC50 ([2]; read-out: EC50 (uM) 1b): 0.0106 µM |
| CCC(NC(=O)c1cccc(-c2cc3c(C(=O)NC)c(-c4ccc(F)cc4)oc3nc2CCC(F)(F)F)c1)C(F)(F)F (stereo not drawn) [Compound 20005] | < 0.1 | – |
| C#CC(C)(C)NC(=O)c1cc(-c2cc3c(C(=O)NC)c(-c4ccc(F)cc4)oc3nc2CCC(F)(F)F)ccc1OC [Compound 21001] | < 0.1 | – |
| CCOC(=O)C(C)(C)NC(=O)c1cccc(-c2cc3c(C(=O)NC)c(-c4ccc(F)cc4)oc3nc2CCC(F)(F)F)c1 [Compound 20029] | < 0.1 | – |
| [2H]C([2H])([2H])C(NC(=O)c1cccc(-c2cc3c(C(=O)NC)c(-c4ccc(F)cc4)oc3nc2NCCO)c1)(C([2H])([2H])[2H])C([2H])([2H])[2H] [Compound 42003] | < 0.1 | EC50 ([2]; read-out: EC50 (uM) 1b): 0.0144 µM |
| CNC(=O)c1c(-c2ccc(F)cc2)oc2nc(CCC(F)(F)F)c(-c3cccc(C(=O)NC(C)C4CC4)c3)cc12 (stereo not drawn) [Compound 20013] | < 0.1 | – |
| CNC(=O)c1c(-c2ccc(F)cc2)oc2nc(NCC(F)(F)C(F)(F)F)c(-c3ccc(OC)c(C(=O)NC(C)(C)C)c3)cc12 [Compound 41001] | < 0.1 | – |
| CNC(=O)c1c(-c2ccc(F)cc2)oc2nc(NCC(F)(F)C(F)(F)F)c(-c3ccc(OC)c(C(=O)NCC(C)(C)C)c3)cc12 [Compound 41002] | < 0.1 | – |
| CNC(=O)c1c(-c2ccc(F)cc2)oc2nc(NCC(F)(F)C(F)(F)F)c(-c3cccc(C(=O)NCC(C)(C)C)c3)cc12 [Compound 40001] | < 0.1 | EC50 ([2]; read-out: EC50 (uM) 1b): 0.0982 µM |
| CNC(=O)c1c(-c2ccc(F)cc2)oc2nc(CCC(F)(F)F)c(-c3cccc(C(=O)N4CC5(CCC5C(=O)OC)C4)c3)cc12 (stereo not drawn) [Compound 20018] | 0.1 to 1 | EC50 ([2]; read-out: EC50 (uM) 1b): 0.11 µM |
| CNC(=O)c1c(-c2ccc(F)cc2)oc2nc(CCC(F)(F)F)c(-c3ccc(OC)c(C(=O)NC(CF)(CF)CF)c3)cc12 [Compound 21003] | < 0.1 | – |
| CNC(=O)c1c(-c2ccc(F)cc2)oc2nc(NCC(F)(F)F)c(-c3cccc(C(=O)NC(C)C(F)(F)F)c3)cc12 (stereo not drawn) [Compound 30004] | < 0.1 | – |
| CNC(=O)c1c(-c2ccc(F)cc2)oc2nc(CCC(F)(F)F)c(-c3cccc(C(=O)NCC(F)(F)C(F)(F)F)c3)cc12 [Compound 20022] | < 0.1 | EC50 ([2]; read-out: EC50 (uM) 1b): 0.0059 µM |
| CNC(=O)c1c(-c2ccc(F)cc2)oc2nc(CCC(F)(F)F)c(-c3cccc(C(=O)NC(C)(C)CCO)c3)cc12 [Compound 20036] | < 0.1 | – |
| CCC(NC(=O)c1cc(-c2cc3c(C(=O)NC)c(-c4ccc(F)cc4)oc3nc2CCC(F)(F)F)ccc1F)C(F)(F)F (stereo not drawn) [Compound 22002] | < 0.1 | – |
| CNC(=O)c1c(-c2ccc(F)cc2)oc2nc(NCC(F)(F)F)c(-c3cccc(C(=O)N[C@H](CO)c4ccccc4)c3)cc12 [Compound 30016] | < 0.1 | – |
| CNC(=O)c1c(-c2ccc(F)cc2)oc2nc(CCC(F)(F)F)c(-c3cccc(C(=O)NC(C)C(F)(F)F)c3)cc12 (stereo not drawn) [Compound 20004] | < 0.1 | – |
| CNC(=O)c1c(-c2ccc(F)cc2)oc2nc(CCC(F)(F)F)c(-c3cccc(C(=O)NC(COC)C4CC4)c3)cc12 (stereo not drawn) [Compound 20016] | < 0.1 | EC50 ([2]; read-out: EC50 (uM) 1b): 0.0217 µM |
| CNC(=O)c1c(-c2ccc(F)cc2)oc2nc(NCC(F)(F)F)c(-c3cccc(C(=O)NCC(C)(C)CO)c3)cc12 [Compound 30014] | < 0.1 | – |
